From article PMC8329197, “Compounds targeting OSBPL7 increase ABCA1-dependent cholesterol efflux preserving kidney function in two models of kidney disease” (Nature Communications, 2021)
Where “and” joins values, the source holds several entries; their conditions need not be identical. Equal values may be shown once.

Experiments:
human podocytes = test: apoAI-mediated cholesterol efflux in human podocytes; assay type: cell-based; settings: for ApoA1-mediated cholesterol efflux (%) in podocytes: single experiments
Procedure: Cell lines were purchased from ATCC and subcultured for no more than passage 15, except for human podocytes, which were originally from Dr Jochen Reiser. Conditionally immortalized human podocytes were cultured under permissive conditions at 33 °C, in RPMI medium (Corning) containing 10% FBS (GIBCO), 1% penicillin/streptomycin, 0.01 mg/ml recombinant human insulin, 0.0055 mg/ml human transferrin (substantially iron-free), and 0.005 μg/ml sodium selenite (ITS, Corning). To induce differentiation, podocytes were cultured at 37 °C for 14 days in RPMI medium containing 10% FBS (GIBCO) and 1% penicillin/streptomycin. Differentiated podocytes were starved in RPMI-0.2% FBS for 18 h and then treated with 1 μM, 5 μM, and 10 μM of compounds freshly prepared in DMSO for 18 h at 37 °C as indicated.
Human podocytes differentiated for 13 days were labeled for 24 h at 37 °C in RPMI medium containing 2% FBS and [^3H]-cholesterol (1 μCi/ml, American Radiolabeled Chemicals). Cells were then washed 3 times with PBS and incubated with RPMI supplemented with 0.2% fat free-BSA (Sigma) with or without compounds for 18-h at 37 °C. The compounds were used at the following concentrations: Cpd C (1 μM), Cpd A (1 μM, 5 μM) and Cpd G (1 μM, 5 μM, 10 μM). Following the 18-h incubation, human apoAI (Calbiochem) was added to the media, (20 μg/mL final concentration) and the cells were incubated for another 18 h at 37 °C. Aliquots of medium collected before (T = 0 h) and after (T = 18 h) the addition of apoAI were centrifuged at 12,000 × g for 5 min and the radioactivity in the supernatant was counted by liquid scintillation. Cells were then washed with PBS, lysed 0.1% SDS, 0.1M NaOH and the radioactivity in the lysates was quantified by liquid scintillation. apoAI-mediated cholesterol efflux, expressed as %, was calculated as the amount of label released to the medium after adding apoAI (the difference in radioactivity in the medium before and after adding ApoA1) divided by the amount of total label in each well (radioactivity released to the media plus radioactivity in the lysed cells).

ABCA1 protein = test: Cell fractionation: ABCA1 in plasma membrane and microsomal fractions of podocytes; assay type: cell-based, human; settings: podocytes; Cpd A 5 µM, Cpd G 10 µM
Procedure: Lysates, or cell fractions were incubated in Laemmli buffer at 55 °C for 10 min under reducing conditions. A total of 30 μg of protein from cell lysates or one-third of the volume collected in cell fraction preparations was separated by SDS-PAGE in 4–20% gradient gels (Biorad) and proteins were then transferred to PVDF membranes. After blocking with 5% TBS-milk, membranes were probed with primary antibodies overnight at 4 °C. The following primary antibodies were used: mouse anti-ABCA1 (Abcam; 1:1000), rabbit anti-GAPDH antibody (Millipore; 1:10,000), mouse anti-actin (CP01, Millipore 1:10,000), anti-MEK, anti-ERp72, anti-V5 and anti-Na^+/K^+ ATPase (Cell Signaling; all 1:1000), and rabbit anti-OSBPL7 (Sigma; 1:1000). After washing, membranes were incubated with anti-rabbit or and anti-mouse IgG-HRP antibodies (Promega, 1:10,000). Signals were detected after incubation with Westernbright ECL HRP substrate (Advansta) and luminescence signals were captured with Azure C600 Gel Imaging workstation (Azure Biosystems Inc, USA) or X-ray films.
Differentiated podocytes were treated with compounds Cpd C (1 μM), Cpd A (5 μM), or Cpd G (10 μM) for 18 h, washed and then harvested in ice-cold PBS. Cells were centrifuged at 1000 × g for 5 min, the supernatant was carefully removed, and the pellet resuspended in hypotonic buffer (15 mM KCl, 1.5 mM MgCl2, 10 mM HEPES and 1 mM DTT) supplemented with a protease inhibitor cocktail (Roche). Cells were disrupted with a glass douncer, and sucrose was added to achieve final concentration of 227 mM. Cell lysates were centrifuged at 1000 × g for 30 min at 4 °C. The supernatant was then transferred to a new tube and centrifuged at 10,000 × g for 15 min at 4 °C. The pellet, containing the microsomal fraction was collected and the supernatant was transferred to a new tube and centrifuged at 100,000 × g for 1 h at 4 °C. The pelleted plasma membrane fraction was collected and the supernatant, containing the organelle-free cytosolic fraction, was concentrated in Vivaspin 500 filter columns. Western blot was performed using antibodies for ABCA1 and specific markers for each membrane fraction as described above. Na^+/K^+ ATPase was used to identify the plasma membrane fraction, ERp72 as a marker for the microsomal-enriched fraction, and MEK as the control for the non-membranous cytosolic fraction.

[1] = tested on: Adriamycin (ADR)-induced nephropathy in Balb/c mice; test: Adriamycin-induced nephropathy, dose-finding pilot study: ACR and body weight time course; settings: for ACR in pilot study: days 7-28; for Body Weight / ACR in spot urine: ADR, individual mice
[2] = 30 mg/Kg/day, 7 days after inj, 30 mg/kg/day
[3] = 30 mg/Kg/day, 14 days after inj, 30 mg/kg/day
[4] = 100 mg/Kg/day, 7 days after inj, 100 mg/kg/day
[5] = 100 mg/Kg/day, 14 days after inj, 100 mg/kg/day
[6] = 100 mg/Kg/day, 21 days after inj, 100 mg/kg/day
[7] = 100 mg/Kg/day, 28 days after inj, 100 mg/kg/day

SMILES: O=C(N[C@@H]1CCCC[C@H]1O)c1ccc(OCC(F)(F)F)c(-c2ccc(Cl)c(Cl)c2)n1 [Cpd A]
- ApoA1-mediated cholesterol efflux (%) in podocytes (human podocytes; 1 uM): 4.2% and 0.9% and 3.2% and 3.5% and 3.7%
- ApoA1-mediated cholesterol efflux (%) in podocytes (human podocytes; 5 uM): 3.3% and 4.4% and 1.5% and 3.7% and 2.4% and 6.4% and 7.6% and 3.5%
- Increase in apoAI-mediated cholesterol efflux vs. untreated cells (human podocytes; Cpd G 10 µM, Cpd A 5 µM, Cpd C 1 µM): ~2 fold
- ABCA1 at the plasma membrane (ABCA1 protein): increased ABCA1 at the plasma membrane
- ABCA1 in microsomal fractions (ABCA1 protein): did not increase ABCA1 in microsomal fractions
- ACR in pilot study ([1]; 30 mg/kg/day oral): significantly improved
- ACR in pilot study ([1]; 100 mg/kg/day oral): significantly improved
- Body Weight ([1]; 30 mg/Kg/day, 0 days after inj, 30 mg/kg/day): 19 grams (3×) and 18 grams and 20 grams
- ACR in spot urine [1, 2]: 0.046 mg Albumin/ mg Creatinine in urine and 0.018 mg Albumin/ mg Creatinine in urine and 0.038 mg Albumin/ mg Creatinine in urine and 0.025 mg Albumin/ mg Creatinine in urine and 0.07 mg Albumin/ mg Creatinine in urine
- Body Weight [1, 2]: 18 grams and 17 grams (3×) and 19 grams
- ACR in spot urine [1, 3]: 18.583 mg Albumin/ mg Creatinine in urine and 0.363 mg Albumin/ mg Creatinine in urine and 64.328 mg Albumin/ mg Creatinine in urine and 0.368 mg Albumin/ mg Creatinine in urine and 1.926 mg Albumin/ mg Creatinine in urine
- Body Weight [1, 3]: 18 grams (3×) and 17 grams (2×)
- Body Weight ([1]; 30 mg/Kg/day, 21 days after inj): 18 grams
- ACR in spot urine ([1]; 30 mg/Kg/day, 21 days after inj, 30 mg/kg/day): 1.551 mg Albumin/ mg Creatinine in urine and 71.309 mg Albumin/ mg Creatinine in urine and 0.609 mg Albumin/ mg Creatinine in urine and 0.814 mg Albumin/ mg Creatinine in urine
- Body Weight ([1]; 30 mg/Kg/day, 28 days after inj): 19 grams
- ACR in spot urine ([1]; 30 mg/Kg/day, 28 days after inj, 30 mg/kg/day): 2.363 mg Albumin/ mg Creatinine in urine and 0.33 mg Albumin/ mg Creatinine in urine and 3.08 mg Albumin/ mg Creatinine in urine and 0.093 mg Albumin/ mg Creatinine in urine and 0.242 mg Albumin/ mg Creatinine in urine
- Body Weight ([1]; 100 mg/Kg/day, 0 days after inj, 100 mg/kg/day): 20 grams (2×) and 18 grams and 19 grams (2×)
- ACR in spot urine [1, 4]: 0.022 mg Albumin/ mg Creatinine in urine and 0.015 mg Albumin/ mg Creatinine in urine and 0.072 mg Albumin/ mg Creatinine in urine and 0.065 mg Albumin/ mg Creatinine in urine
- Body Weight [1, 4]: 18 grams and 17 grams (4×)
- ACR in spot urine [1, 5]: 5.851 mg Albumin/ mg Creatinine in urine and 174.428 mg Albumin/ mg Creatinine in urine and 9.218 mg Albumin/ mg Creatinine in urine and 96.72 mg Albumin/ mg Creatinine in urine
- Body Weight [1, 5]: 17 grams (3×) and 18 grams and 19 grams
- ACR in spot urine [1, 6]: 3.536 mg Albumin/ mg Creatinine in urine and 136.245 mg Albumin/ mg Creatinine in urine and 73.737 mg Albumin/ mg Creatinine in urine and 208.282 mg Albumin/ mg Creatinine in urine
- Body Weight [1, 6]: 15 grams and 18 grams (3×)
- ACR in spot urine [1, 7]: 0.638 mg Albumin/ mg Creatinine in urine and 26.929 mg Albumin/ mg Creatinine in urine and 1.99 mg Albumin/ mg Creatinine in urine and 18.858 mg Albumin/ mg Creatinine in urine
- Body Weight [1, 7]: 15 grams and 19 grams and 18 grams and 14 grams
